Columns and labels:
[1] = tested on: 3-Hydroxy-3-Methylglutaryl Coenzyme A Reductase (HMGR); assay: 3-Hydroxy-3-Methylglutaryl Coenzyme A Reductase (HMGR) Suppression Assay; format: cell-based, Chinese Hamster (CHO cells); conditions: CHO cells, 6 hr. at 37°; read-out: IC50 (amount of compound required to suppress HMGR activity by 50% relative to controls)
Experimental: The ability of the compounds of Formula I to suppress the activity of HMGR, the rate limiting enzyme of cholesterol biosynthesis, was tested as follows.
Chinese Hamster Ovary (CHO) cells were divided twice weekly and were maintained in McCoy's 5A medium supplemented with 1% carbosil delipidated Fetal Bovine System (FBS) (obtained from Gibco Laboratories, Chagrin Falls, Ohio). Cells were harvested during the logarithmic phase of growth and cell cultures were prepared by adding […] cells to each well in a 24 well cluster dish (obtained from Costar, Data Packaging Corp., Cambridge, Mass.) employing 1 ml of the above medium per each well. […] Control cells were treated in an identical fashion to those which received test compound, except they were incubated with the BSA and ethanol suspension only.
Specifically, the medium in each well was aspirated and the cells rinsed with a 50 mM solution of phosphate buffered saline (PBS). One ml of 30 mg/ml of digitonin in CSK buffer (prepared using 10 mM Pipes [piperazine-N,N'-bis (2-ethansulfonic) acid], 100 mM KCl, 2.5 mM MgCl2, 300 mM sucrose, 1 mM EGTA, pH 6.8) was added to each well and incubated for 10 min. at 22° to permeabilize the cells. The buffer was carefully aspirated and the wells were rinsed twice each time with 1 ml of PBS. HMGR activity was measured directly by adding 75 ml of PIB buffer (50 mM potassium phosphate, 1 mM Na2 EDTA, 10 mM dithiothreitol, pH 7.4) to each well and incubating the cells for 30 minutes at 37° as described above. […] The assay mixture was incubated for 30 min. at 37° and terminated by the addition of 70 ml of [^3 H]-mevalonicacid (35,000 DPM/assay), 0.15 mg/ml in 3N HCl.
The reaction was left to lactonize for an additional 30 min. at 37° or overnight at room temperature.
Reaction products were separated by thin layer chromatography on silica gel G (obtained from Analtech, Newark, Del.) developed in an unsaturated environment with acetone:benzene (3:2, v:v). The band corresponding to mevalonolactone was identified by exposure to iodine vapor and was scraped into counting vials. The extent of conversion of starting substrate, HMG-CoA, to mevalonic acid was determined by liquid scintillation counting in Biofluor (obtained from New England Nuclear, Boston, Mass.). Corrections for recovery and blank values were made for each sample. Protein determinations were made by Bio-Rad (Bio-Rad, Richmond, Calif.) dye binding assay according to the manufacturer's instruction using bovine serum albumin as standard. Cellular protein was solubilized from culture dishes by the addition of 20 μl of 16N KOH and assayed directly for protein amount. Suppression values are expressed as the amount of compound required to suppress HMGR activity by 50% relative to that of the controls.

[2] = Lowering Blood Cholesterol Levels in Hamsters; format: in vivo, Male Golden Syrian hamsters; conditions: 0.2% (w/w) in feed, 7 days; means ± SEM; N = 10; pair-fed control 133.0 ± 4.0 (N = 20)
Experimental: Male Golden Syrian hamsters (50-60 grams) were obtained from Charles River, Inc. (Wilmington, Mass.).
Animals were housed in individual suspension cages and were maintained on a light cycle consisting of 12 hours of light followed by 12 hours of dark. Animals were allowed free access to water and feed (Agway ground chow, RMH 3200, Agway, Syracuse, N.Y.) containing 1% (w/w) corn oil) for a minimum of 4 weeks.
Following this stabilization period a sample of blood was collected by orbital sinus bleeding under light ether anesthesia into heparinized capillary tubes. Plasma was separated by centrifugation (600×g for 10 minutes) and plasma cholesterols were determined by an autoanalyzer (Centrifichem 600, Baker Instruments, Allentown, Pa.). Based upon measured plasma cholesterol values, the animals were randomized into two groups such that the mean plasma cholesterol values were identical for both groups.
Animals in the two groups were then placed on one of two diets: (1) Diet A, consisting of ground chow plus 1% (w/w) corn oil, as described above; or (2) Diet B, consisting of Diet A plus 0.2% (w/w) of a test compound. Animals on Diet B, the treated animals, were allowed free access to feed and water, while animals on Diet A were pair-matched with Diet B animals and served as pair-fed controls. […] Total plasma cholesterol levels were determined as described above. […]

Puccinia recondita = assay: Example G: wheat leaf rust on wheat seedlings; format: in vivo; conditions: 220 ppm, 100 = 100% disease control
Experimental: The test compounds were dissolved in acetone in an amount equal to 6% of the final volume and then suspended at a concentration of 220 ppm in purified water containing 250 ppm of the surfactant TREM 014 (polyhydric alcohol esters). This suspension was sprayed to the point of run-off on wheat seedlings. The following day plants were inoculated with a spore suspension of Puccinia recondita, the causal agent of wheat leaf rust, and incubated in a saturated humidity chamber at 20° C. for 48 hours and then in a growth chamber at 20° C. for 8 days, when disease ratings were made. […] A dashed entry indicates the specified test was not performed.

[3] = tested on: Ersiphe graminis f. sp. tritici; assay: Example D: wheat powdery mildew on wheat seedlings; format: in vivo; conditions: 200 ppm, 100 = 100% disease control
Experimental: The test compounds were dissolved in acetone in an amount equal to 6% of the final volume and then suspended at a concentration of 200 ppm in purified water containing 250 ppm of the surfactant TREM 014 (polyhydric alcohol esters). This suspension was sprayed to the point of run-off on wheat seedlings. […] A dashed entry indicates the specified test was not performed.

peanut seedlings = assay: Example B: plant disease control on peanut seedlings; format: in vivo; conditions: 200 ppm, 100 = 100% disease control
Experimental: The test compounds were dissolved in acetone in an amount equal to 6% of the final volume and then suspended at a concentration of 200 ppm in purified water containing 250 ppm of the surfactant TREM […] (polyhydric alcohol esters). This suspension was sprayed to the point of run-off on peanut seedlings. The following day plants were incubated in a saturated humidity chamber at 22° C. for 24 hours, then in a high humidity chamber at 27° C. for 7 days, and then in a growth chamber at 29° C. for 7 days, when disease ratings were made.
In this table, a rating of 100 indicated 100% disease control, and a rating of 0 indicates no disease control relative to untreated plants that were inoculated and incubated as described in each Example. A dashed entry indicates the specified test was not performed.

Botyrtis cinerea = assay: Example C: bean grey mold on broad bean seedlings; format: in vivo; conditions: 200 ppm, 100 = 100% disease control
Experimental: (§1) The test compounds were dissolved in acetone in an amount equal to 6% of the final volume and then suspended at a concentration of 200 ppm in purified water containing 250 ppm of the surfactant TREM 0914 (polyhydric alcohol esters). This suspension was sprayed to the point of run-off on broad bean seedlings. The following day plants were inoculated with a spore suspension of Botyrtis cinerea, the causal agent of bean grey mold, and incubated in a saturated humidity chamber at 20° C. for 24 hours when disease ratings were made. […] A dashed entry indicates the specified test was not performed.

Rhizoctonia solani = assay: Example F: rice sheath blight on rice seedlings; format: in vivo; conditions: 220 ppm, 0 = no disease control, 100 = 100% disease control
Experimental: The test compounds were dissolved in acetone in an amount equal to 6% of the final volume and then suspended at a concentration of 220 ppm in purified water containing 250 ppm of the surfactant TREM 014 (polyhydric alcohol esters). This suspension was sprayed to the point of run-off on rice seedlings. The following day plants were inoculated with a mycelial suspension of Rhizoctonia solani, the causal agent of rice sheath blight, and incubated in a saturated humidity chamber at 27° C. for 48 hours and then in a growth chamber at 29° C. for 4 days, when disease ratings were made. […] A dashed entry indicates the specified test was not performed.

Venturia inaequalis = assay: Example A: apple scab on apple seedlings; format: in vivo; conditions: 200 ppm, sprayed the day before inoculation, 100 = 100% disease control
Experimental: The test compounds were dissolved in acetone in an amount equal to 6% of the final volume and then suspended at a concentration of 200 ppm in purified water containing 250 ppm of the surfactant TREM 014 (polyhydric alcohol esters). This suspension was sprayed to the point of run-off on apple seedlings. The following day plants were inoculated with a spore suspension of Venturia inaequalis, the casual agent of apple scab, and incubated in a saturated humidity chamber at 20° C. for 24 hours and then in a growth chamber at 22° C. for 11 days, when disease ratings were made. […] A dashed entry indicates the specified test was not performed.

Botrytis cinerea [4] = assay: Example J: grape grey mold on grape seedlings; format: in vivo; conditions: 200 ppm, 100 = 100% disease control
Experimental: as §1, with “014” for “0914”, “grape” for “broad bean”, “Botrytis” for “Botyrtis”, “grape” for “bean”, “96” for “24”

Pyricularia oryzae = format: in vivo; conditions: rice seedlings, 200 ppm; 100 = 100% disease control
Botrytis cinerea [5] = assay: Example K: cucumber grey mold on cucumber seedlings; format: in vivo; conditions: 200 ppm, 100 = 100% disease control
Experimental: as §1, with “014” for “0914”, “cucumber” for “broad bean”, “Botrytis” for “Botyrtis”, “cucumber” for “bean”, “4 days” for “24 hours”

Phytophthora infestans = format: in vivo; conditions: tomato seedlings, 200 ppm; 100 = 100% disease control
Plasmopara victicola = assay: Example I: grape downy mildew on grape seedlings; format: in vivo; conditions: 200 ppm, 100 = 100% disease control
Experimental: The test compounds were dissolved in acetone in an amount equal to 6% of the final volume and then suspended at a concentration of 200 ppm in purified water containing 250 ppm of the surfactant TREM 014 (polyhydric alcohol esters). This suspension was sprayed to the point of run-off on grape seedlings. The following day plants were inoculated with a spore suspension of Plasmopara victicola, the causal agent of grape downy mildew, and incubated in a saturated humidity chamber at 20° C. for 24 hours and then in a growth chamber at 20° C. for 7 days, and then held in a saturated humidity chamber at 20° C. for 24 hours, when disease ratings were made. […] A dashed entry indicates the specified test was not performed.

| Compound | IC50 [1] [nM] | Plasma Cholesterol, Treated [2] [mg/dl] | disease control rating, Example G (Puccinia recondita) [%] | disease control rating, Example D [3] [%] | disease control rating, Example B (peanut seedlings) [%] | disease control rating, Example C (Botyrtis cinerea) [%] | disease control rating, Example F (Rhizoctonia solani) [%] | disease control rating, Example A (Venturia inaequalis) [%] | disease control rating, Example J (Botrytis cinerea [4]) [%] | disease control rating, Example E (Pyricularia oryzae) [%] | disease control rating, Example K (Botrytis cinerea [5]) [%] | disease control rating, Example H (Phytophthora infestans) [%] | disease control rating, Example I (Plasmopara victicola) [%] |
| --- | --- | --- | --- | --- | --- | --- | --- | --- | --- | --- | --- | --- | --- |
| CC(C)CCC[C@@H](C)[C@H]1CO[C@@]2(C)C3=C(CC[C@]12C)[C@@]1(C)CC[C@H](O)C(C)(C)[C@@H]1CC3 [Example 1, 15-Oxa-dihydrolanosterol] | 180 | 120. ± 2.0 |  |  |  |  |  |  |  |  |  |  |  |
| CC(C)CCC[C@@H](C)[C@H]1CN=C2C3=C(CC[C@@]21C)[C@@]1(C)CC[C@H](O)C(C)(C)[C@@H]1CC3 [Example 1817] | 500 |  | 62 | 92 | 25 | 97 | 0 | 90 | 97 | 1 | 99 |  |  |
| CC(C)CCC[C@@H](C)[C@H]1CN=C2C3=C(CC[C@@]21C)[C@@]1(C)CC[C@H](O)C[C@@H]1CC3 [Example 1818] | 160 |  | 100 | 98 | 95 | 95 | 0 | 99 | 78 | 6 | 100 | 94 | 100 |

From US5219879A, “Heterocyclic steroid compounds” (Du Pont Merck Pharmaceutical Company, priority 1991, dated 1993)
